Reference: patent publication US20240279220A1, “INDOLE COMPOUNDS AND METHODS OF USE” (Genzyme Corporation, priority 2021, published 2024)

Test system: NBD1/3D
Assay: Aggregation analysis using differential static light scattering (DSLS), NBD1 thermal stability
Assay type: binding, Human
Settings: ΔTagg versus DMSO control; compound at 100 μM
How it was run: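 Purified NBD1 at 0.2 mg/ml in S200 buffer (pH 7.6, 2 mM ATP, 5 mM MgCl2, 1% glycerol) was heated with compound at 1 °C/min to 70 °C. Tagg taken from the light-scattering curve inflection point; ΔTagg = compound Tagg minus mean DMSO control Tagg.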

## CC(C)(c1cnc(-c2cc(Oc3c(F)cc4[nH]ccc4c3CC(F)(F)F)ccc2F)[nH]1)c1cccc(CCC(=O)O)c1F [Example 163, 3-(2-fluoro-3-(2-(2-(2-fluoro-5-((6-fluoro-4-(2,2,2-trifluoroethyl)-1H-indol-5-yl)oxy)phenyl)-1H-imidazol-5-yl)propan-2-yl)phenyl)propanoic acid]
  DSLS NBD1/3D Human Stability delta-T (° C.) @ 100 (μM): B (B: 5-10° C.)

## CC(C)(c1c[nH]c(-c2cc(Oc3c(F)cc4[nH]ccc4c3Cl)ccc2F)n1)c1cccc(CCC(=O)O)c1F [Example 164, 3-(3-(2-(2-(5-((4-chloro-6-fluoro-1H-indol-5-yl)oxy)-2-fluorophenyl)-1H-imidazol-4-yl)propan-2-yl)-2-fluorophenyl)propanoic acid]
  DSLS NBD1/3D Human Stability delta-T (° C.) @ 100 (μM): B (B: 5-10° C.)

## O=C(O)CCc1cccc(C2(c3cnc(-c4cc(Oc5nc6cc[nH]c6cc5F)ccc4F)[nH]3)CC(F)(F)C2)c1 [Example 165, 3-(3-(3,3-difluoro-1-(2-(2-fluoro-5-((6-fluoro-1H-pyrrolo[3,2-b]pyridin-5-yl)oxy)phenyl)-1H-imidazol-5-yl)cyclobutyl)phenyl)propanoic acid]
  DSLS NBD1/3D Human Stability delta-T (° C.) @ 100 (μM): B (B: 5-10° C.)

## O=C(O)CCc1cccc(C2(c3cnc(-c4cc(Oc5ccc6scnc6c5)ccc4F)[nH]3)CCOCC2)c1 [Example 166, 3-(3-(4-(2-(5-(Benzo[d]thiazol-5-yloxy)-2-fluorophenyl)-1H-imidazol-5-yl)tetrahydro-2H-pyran-4-yl)phenyl)propanoic acid]
  DSLS NBD1/3D Human Stability delta-T (° C.) @ 100 (μM): C (C: ≤5° C.)

## Cc1c(Oc2ccc(F)c(-c3ncc(C4(c5cccc(CCC(=O)O)c5)CCN(CC(F)(F)F)CC4)[nH]3)c2)c(F)cc2[nH]ccc12 [Example 168, 3-(3-(4-(2-(2-fluoro-5-((6-fluoro-4-methyl-1H-indol-5-yl)oxy)phenyl)-1H-imidazol-5-yl)-1-(2,2,2-trifluoroethyl)piperidin-4-yl)phenyl)propanoic acid]
  DSLS NBD1/3D Human Stability delta-T (° C.) @ 100 (μM): B (B: 5-10° C.)

## Cc1c(Oc2cccc(-c3ncc(C(O)c4cccc(CC(F)C(=O)O)c4)[nH]3)c2)ccc2[nH]ccc12 (centres unmarked) [Example 172, 2-Fluoro-3-(3-(hydroxy(2-(3-((4-methyl-1H-indol-5-yl)oxy)phenyl)-1H-imidazol-5-yl)methyl)phenyl)propanoic acid]
  DSLS NBD1/3D Human Stability delta-T (° C.) @ 100 (μM): A (A: T ≥ 10° C.)

## COC(=O)C(F)Cc1cccc(C(O)c2cnc(-c3cccc(Oc4ccc5[nH]ccc5c4C)c3)[nH]2)c1 (centres unmarked) [Example 173, Methyl 2-fluoro-3-(3-(hydroxy(2-(3-((4-methyl-1H-indol-5-yl)oxy)phenyl)-1H-imidazol-5-yl)methyl)phenyl)propanoate]
  DSLS NBD1/3D Human Stability delta-T (° C.) @ 100 (μM): B (B: 5-10° C.)

## C=Cc1c(Oc2cccc(-c3ncc(C(O)c4cccc(CCC(=O)O)c4)[nH]3)c2)ccc2[nH]ccc12 (centres unmarked) [Example 174, 3-(3-(hydroxy(2-(3-((4-vinyl-1H-indol-5-yl)oxy)phenyl)-1H-imidazol-5-yl)methyl)phenyl)propanoic acid]
  DSLS NBD1/3D Human Stability delta-T (° C.) @ 100 (μM): B (B: 5-10° C.)

## O=C(O)CCc1cccc(C(O)c2cnc(-c3cccc(Oc4ccc5[nH]ccc5c4C4CC4)c3)[nH]2)c1 (centres unmarked) [Example 175, 3-(3-((2-(3-((4-cyclopropyl-1H-indol-5-yl)oxy)phenyl)-1H-imidazol-5-yl)(hydroxy)methyl)phenyl)propanoic acid]
  DSLS NBD1/3D Human Stability delta-T (° C.) @ 100 (μM): B (B: 5-10° C.)

## Cc1c(Oc2cccc(-c3ncc(C(O)c4cccc(C5CC5C(=O)O)c4)[nH]3)c2)ccc2[nH]ccc12 (centres unmarked) [Example 176, 2-(3-(hydroxy(2-(3-((4-methyl-1H-indol-5-yl)oxy)phenyl)-1H-imidazol-5-yl)methyl)phenyl)cyclopropane-1-carboxylic acid]
  DSLS NBD1/3D Human Stability delta-T (° C.) @ 100 (μM): B (B: 5-10° C.)

## O=C(O)CCc1cccc(C(O)c2c[nH]c(-c3cc(Oc4c(F)cc5[nH]ccc5c4F)ccc3F)n2)c1 (centres unmarked) [Example 177, 3-(3-((2-(5-((4,6-difluoro-1H-indol-5-yl)oxy)-2-fluorophenyl)-1H-imidazol-4-yl)(hydroxy)methyl)phenyl)propanoic acid]
  DSLS NBD1/3D Human Stability delta-T (° C.) @ 100 (μM): A (A: T ≥ 10° C.)
